# Assay results taken from patent publication US20110318470A1, “Method For Improving Plant Health” (priority 2008, published 2011).
# System: Wheat plants (Trificum aestivum cv. Monopol)
# Assay: Growth-promoting effect on wheat plants after foliar treatment
# Assay type: in vivo
# Conditions: for Shoot-DW / Shoot-FW: 750 l/ha, greenhouse, mean of six pots with ten plants; for Shoot-DW / Shoot-FW / Shoot-DW % of control / Shoot-FW % of control: harvest after 18 days; for Shoot-DW % of control / Shoot-FW % of control: control = 100.0; for plant health (higher yields and increased plant vigor based on fresh- and dry weights) / tillering: wheat, foliar treatment, 15 and 7.5 g ai/ha
# Description: Wheat plants (Trificum aestivum cv. Monopol) were grown in soil with ten plants per pot (13 cm diameter) under greenhouse conditions. Plants at the 2nd leaf stage were sprayed with aqueous solutions of formulated compounds: • Compound 1=4-Fluoro-N-[2-(2-fluoro-benzoylamino)-1-methylcarbamoyl-ethyl]-2-trifluoromethyl-benzamide • Compound 2=4-Fluoro-N-[2-(3-fluoro-2-methyl-phenyl)-2-hydroxy-1-methylcarbamoyl-ethyl]-2-trifluoromethyl-benzamide The compounds were applied at two different dose rates (15 and 7.5 g ai/ha) and the spray volume was 750 l/ha. Six replicate pots with ten plants each were used per treatment. After 18 days plants were harvested and growth parameters were determined. The recorded parameters were fresh weight (FW) and dry weight (DW). Mean values of results, standard deviation (SD) and percentage to control were calculated.
# [1] = 7.5 g ai/ha foliar spray at 2nd leaf stage
# [2] = 15 g ai/ha foliar spray at 2nd leaf stage
SMILES,Shoot-DW [1],Shoot-FW [1],Shoot-DW % of control (7.5 g ai/ha foliar spray),Shoot-FW % of control (7.5 g ai/ha foliar spray),Shoot-DW [2],Shoot-FW [2],Shoot-DW % of control (15 g ai/ha foliar spray),Shoot-FW % of control (15 g ai/ha foliar spray),plant health (higher yields and increased plant vigor based on fresh- and dry weights),tillering
"CNC(=O)C(CNC(=O)c1ccccc1F)NC(=O)c1ccc(F)cc1C(F)(F)F (centres unmarked) [Compound 1, 4-Fluoro-N-[2-(2-fluoro-benzoylamino)-1-methylcarbamoyl-ethyl]-2-trifluoromethyl-benzamide]",3.8 g,40.6 g,134.9 % of control,132.7 % of control,3.7 g,38.8 g,131.0 % of control,126.9 % of control,strongly increase the plant health,increase in tillering
"CNC(=O)C(NC(=O)c1ccc(F)cc1C(F)(F)F)C(O)c1cccc(F)c1C (centres unmarked) [Compound 2, 4-Fluoro-N-[2-(3-fluoro-2-methyl-phenyl)-2-hydroxy-1-methylcarbamoyl-ethyl]-2-trifluoromethyl-benzamide]",3.9 g,40.2 g,138.6 % of control,131.4 % of control,3.9 g,40.6 g,138.2 % of control,132.8 % of control,strongly increase the plant health,increase in tillering
